Reference: US8030304B2, “Thiazole pyrazolopyrimidines CRF1 receptor antagonists” (Eli Lilly and Company, priority 2006, dated 2011)
Residue numbers refer to the chain shown, from its start. One block for each compound: values may come before it.

Key:
[1] = Bioavailability and pharmacokinetic properties (volume of distribution, plasma clearance)
Excerpt: (§1) Bioavailability and Pharmacokinetic Properties
(§2) The volume of distribution (Vdist) relates the amount of the drug in the body to the concentration of the drug in the blood or plasma. […] The volume of distribution reflects the extent to which the drug is present in the extravascular tissue. A large volume of distribution reflects the tendency of a compound to bind to the tissue components compared with plasma protein binding.
(§3) To test for volume of distribution, Male Sprague Dawley rats (N=3) are administered a single 1 mg/kg intravenous dose of compound. Multiple plasma samples are collected at time points from 0.08 to 24 hours post-dose. The plasma samples are analyzed by LC/MS/MS to determine the plasma concentrations. Plasma pharmacokinetic calculations are performed to determine the pharmacokinetic parameters including Vdist and plasma clearance (Clp).
(§4) Further, the plasma clearance (CLp) is a measure of the rate of removal of the drug from the body. Following an intravenous dose and first-order kinetics, the plasma clearance may be determined using the following equation: CLp=Dose/AUC, where
(§5) AUC is the total area under the curve that describes the concentration of the drug in the plasma as a function of time from zero to infinity.

[2] = target: T1, human CRF2 (Homo sapiens, UniProt Q13324); assay: CRF2 filter binding assay; details: at a concentration of 50 μM
T1 construct: expressed in transfected cells
T1 sequence (Q13324 1-411): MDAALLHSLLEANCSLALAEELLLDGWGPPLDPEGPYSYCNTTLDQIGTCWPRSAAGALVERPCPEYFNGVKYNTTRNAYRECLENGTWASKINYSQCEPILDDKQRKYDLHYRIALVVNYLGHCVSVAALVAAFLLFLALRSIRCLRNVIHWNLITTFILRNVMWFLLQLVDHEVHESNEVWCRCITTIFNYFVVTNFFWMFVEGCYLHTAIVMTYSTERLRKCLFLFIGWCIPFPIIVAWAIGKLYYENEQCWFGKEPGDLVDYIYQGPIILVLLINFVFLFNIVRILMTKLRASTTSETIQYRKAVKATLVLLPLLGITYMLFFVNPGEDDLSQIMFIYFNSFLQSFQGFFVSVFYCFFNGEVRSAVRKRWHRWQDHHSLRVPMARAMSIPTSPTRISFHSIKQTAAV
Protocol: CRF2 Filter Binding Assay
The limitations of plasmid-based human CRF2 expression, in terms of generating a recombinant cell line with sufficient receptor density to develop a binding assay, are overcome by using a Phoenix retroviral expression system licensed from Stanford. The stable HEK-hCRF2 cell line is used to prepare membranes and binding reactions (200 μL) are set up as follows: 50 μL of ^125I-sauvagine (0.2 nM final concentration), 50 μL compound and 100 μL CRF2 membrane (25 μg/reaction). The reactions are incubated at room temperature for 2 hours and then terminated by filtration through pre-treated FB Millipore glass fiber filter plates (96 well). The plates are washed twice with ice-cold assay buffer (50 mM tris, 12.5 mM NaCl, 1 mM EDTA, 10 mM MgCl2, 0.05% BSA, pH 7.2), air dried over night and counted with 100 μL Microscint 40 in a MicroBeta counter. Non-specific binding (NSB) is determined in the presence of 0.5 μM non-labeled sauvagine. Alternatively, compounds are evaluated using a Scintillation Proximity assay. […] Bound radioactivity is assessed using a Wallac Trilux scintillation counter. Binding is assessed typically using triplicate determinations and the median data points plotted by Graph Pad Prism. […]

[3] = in vivo; details: male, Sprague Dawley, rat, iv
Excerpt: as §1, §2, §3, §4, §5

[4] = target: T2, binding of 125I-sauvagine to the cerebellum (Rattus norvegicus, UniProt P35353); assay: In vivo potency assessment using ex vivo binding; details: oral route
T2 construct: from tissue; host or cells: rat cerebellum
T2 sequence (P35353 24-415): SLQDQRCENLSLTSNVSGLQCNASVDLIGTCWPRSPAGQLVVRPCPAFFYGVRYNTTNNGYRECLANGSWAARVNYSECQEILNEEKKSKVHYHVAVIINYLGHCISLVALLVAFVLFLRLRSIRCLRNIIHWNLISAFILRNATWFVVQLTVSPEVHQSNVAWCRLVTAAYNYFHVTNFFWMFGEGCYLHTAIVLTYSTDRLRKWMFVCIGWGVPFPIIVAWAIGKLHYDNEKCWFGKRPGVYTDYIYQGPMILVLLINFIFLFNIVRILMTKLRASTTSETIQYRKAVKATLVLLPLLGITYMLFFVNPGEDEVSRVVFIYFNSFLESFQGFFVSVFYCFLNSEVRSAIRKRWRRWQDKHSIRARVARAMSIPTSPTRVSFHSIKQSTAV
Protocol: In Vivo Potency Assessment Using Ex Vivo Binding
To assess in vivo potency, a compound of the present invention is evaluated using ex vivo binding. Using the procedures as provided in D. R. Gehlert et al., EJP 509: 145-153 (2005), a compound is administered to a rat via the oral route.

[5] = target: T3, human CRF1 (Homo sapiens, UniProt P34998); assay: CRF1 filter binding assay; details: HEK-hCRF1 membranes, 125I-sauvagine; read-out: Ki (inhibition constant)
T3 construct: expressed in transfected cells
T3 sequence (P34998 24-415): T2 sequence (P35353 24-415) with R6H, N9S, T13A, V16I, V153M, A163G, V209I, H229Y, R356H
Protocol: CRF1 Filter Binding Assay
The limitations of plasmid-based human CRF1 expression, in terms of generating a recombinant cell line with sufficient receptor density to develop a binding assay, are overcome by using a Phoenix retroviral expression system licensed from Stanford. The stable HEK-hCRF1 cell line is used to prepare membranes and binding reactions (200 μL) are set up as follows: 50 μL of ^125I-sauvagine (0.2 nM final), 50 μL compound and 100 μL CRF1 membrane (25 μg/reaction). The reactions are incubated at room temperature for 2 h and then terminated by filtration through pre-treated FB Millipore glass fiber filter plates (96 well). The plates are washed twice with ice-cold assay buffer (50 mM tris, 12.5 mM NaCl, 1 mM EDTA, 10 mM MgCl2, 0.05% BSA, pH 7.2), air dried over night and counted with 100 μL Microscint 40 in a MicroBeta counter. Non-specific binding (NSB) is determined in the presence of 0.5 μM non-labeled sauvagine. Triplicate determinations are typically run and the median data points plotted by Graph Pad Prism.

[6] = male, Sprague Dawley, rat, plasma, iv, 1 mg/kg

Vd [1, 6]: 114 L/kg | clearance [1, 6]: 83 mL/min/kg
SMILES: CCCCN(CC)c1nc(C)nc2c1c(C)cn2-c1c(C)cc(C)cc1C [CP154526]

rat Vdist (volume of distribution) ([1]; single intravenous dose of 1 mg/kg, analyzed separately): 76 L/kg
SMILES: CCCN(CCC)c1cc(C)nc2c(-c3cnc(N(C)C)cc3C)c(C)nn12 [NBI30775]

inhibition at 50 µM [2]: 11% | clearance [3]: 23.6 mL/min/kg | Vd ([3]; 1 mg/kg): 7.2 L/kg | inhibition at 10 mg/kg [4]: 65% | Ki [5]: 6.2 nM
SMILES: CCC(CC)c1cc(C)nc2c(-c3sc(N(C)C)nc3Cl)c(C)nn12 [Example 15, {4-Chloro-5-[7-(1-ethyl-propyl)-2,5-dimethyl-pyrazolo[1,5-a]pyrimidin-3-yl]-thiazol-2-yl}-dimethyl-amine]
